# “Also recorded” adds a separate entry of the source.
# Experiments:
# androgen receptor [1] = molecular target: T1, androgen receptor (Homo sapiens, UniProt P10275); experiment: In vitro inhibition of the androgen receptor-testosterone interaction; assay type: binding; design: from tissue; details: for inhibition of the androgen receptor site: 10 molecules of compound for one molecule of testosterone; for Femtamoles of Testosterone Bound/mg Protein / % of Androgen Receptor Inhibition: ratio of compound to androgen 20:1; for Femtamoles of Testosterone Bound/mg Protein: corrected for nonspecific binding, 0:1 = 3.6; for % of Androgen Receptor Inhibition: testosterone
# T1 sequence (P10275 1-920): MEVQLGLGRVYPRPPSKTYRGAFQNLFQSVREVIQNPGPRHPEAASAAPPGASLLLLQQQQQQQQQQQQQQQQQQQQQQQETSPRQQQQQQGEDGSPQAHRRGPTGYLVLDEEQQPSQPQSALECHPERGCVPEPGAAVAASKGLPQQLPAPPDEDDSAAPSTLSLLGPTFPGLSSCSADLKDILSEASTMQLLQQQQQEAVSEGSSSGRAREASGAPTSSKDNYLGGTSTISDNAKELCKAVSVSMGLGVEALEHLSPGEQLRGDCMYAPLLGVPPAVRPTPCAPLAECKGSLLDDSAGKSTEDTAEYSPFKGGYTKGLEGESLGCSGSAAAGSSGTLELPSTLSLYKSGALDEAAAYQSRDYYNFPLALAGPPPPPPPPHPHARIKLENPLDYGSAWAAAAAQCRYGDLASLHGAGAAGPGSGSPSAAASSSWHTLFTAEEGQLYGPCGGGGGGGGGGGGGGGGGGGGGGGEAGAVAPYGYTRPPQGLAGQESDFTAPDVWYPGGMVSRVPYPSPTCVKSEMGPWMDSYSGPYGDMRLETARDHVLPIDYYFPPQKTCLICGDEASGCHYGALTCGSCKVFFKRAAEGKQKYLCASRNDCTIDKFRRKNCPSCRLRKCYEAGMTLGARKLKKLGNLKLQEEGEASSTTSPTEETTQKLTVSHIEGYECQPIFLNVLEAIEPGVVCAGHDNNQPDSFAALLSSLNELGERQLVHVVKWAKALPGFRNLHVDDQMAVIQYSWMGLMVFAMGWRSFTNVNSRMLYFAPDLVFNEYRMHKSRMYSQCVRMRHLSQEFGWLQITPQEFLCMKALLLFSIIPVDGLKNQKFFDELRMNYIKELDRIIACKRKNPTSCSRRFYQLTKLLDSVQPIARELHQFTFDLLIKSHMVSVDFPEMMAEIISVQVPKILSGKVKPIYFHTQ
# Experimental: Competitive inhibition experiments were performed using compound IV in the second technique described above.
# Fusarium = experiment: Effects on Fusarium growth and fungal hormone production; assay type: cell-based
# Description: It is also known that these fungi elaborate zearalenone and zearalanol which are toxic substances to livestock ingesting the grain rotted by them. Ingestion of these toxic substances is known to influence the prepubertal development of pigs (Berger et al., Journal of Animal Science, Vol. 53, pages 1559-1564 (1981). Zearalenone and zearalanol also affect milk production, breeding and pregnancy in such large livestock animals as pigs, cows and horses (Young et al., Journal of Animal Science, Vol. 54, pages 976-982). The Fusarium family of fungi also adversely affect chicken, turkey and other poultry animal populations (Allen et al., Poultry Science, Vol. 60, pages 124-131 (1981); Mirocha et al., Poultry Science, Vol. 60, pages 19-25 (1981)). Because of the importance of livestock production, the effect of the anti-androgens of this invention on these fungi was extensively studied. There is no currently available satisfactory treatment for the fungi nor the fungal hormones they elaborate (i.e., zearalenone and zearalanol).
# androgen receptor sites = molecular target: T2, androgen receptor sites (Homo sapiens, UniProt P10275); experiment: Anti-androgenic action in similar tests
# T2 construct: other tests of the document use human skin, keloid and fibroblasts with 3H-DHT
# Description: The test procedures set forth in Examples 54-58 may be repeated with the compound 2-(5-methoxyhept-1-yl)bicyclo[3.3.0]octan-7-one {hexahydro-4-(5-methoxyheptyl)-2(1H)-pentalenone}.
# androgen receptor [2] = molecular target: T1, androgen receptor; experiment: In vitro inhibition of the androgen receptor-DHT interaction; assay type: binding; design: from tissue; details: for % of Androgen Receptor Inhibition: DHT; for Femtamoles of DHT Bound/mg Protein: corrected for nonspecific binding, 0:1 = 78
# androgen receptor site = molecular target: T3, androgen receptor site (Homo sapiens, UniProt P10275); experiment: % inhibition of labelled androgen (3H DHT) binding to caesarean section skin from hirsute patients
# T3 construct: the test utilizing caesarean section skin from hirsute patients; from tissue; host or cells: caesarean section skin from hirsute patients
# T3 sequence (P10275 1-920): T1 sequence (P10275 1-920)
# human fibroblast cells [3] = experiment: Collagen production by fibroblast cells; assay type: cell-based; details: treated vs control cells
# Description: (§1) Experiments generally following the methodology of Boote et al., Biochimica et Biophysica Acta, Volume 607, pages 145-160 (1980), have shown that while control human fibroblast cells have copious collagen production, treatment with the compounds of the invention provides human fibroblast cells with suppressed collagen production and with an about 30% increase in elastin production over control cells.
# (§2) Wrinkling of the skin involves the decreased formation of elastin and the increased formation of collagen by supporting cells, predominantly the fibroblasts.
# androgen receptor [4] = molecular target: T1, androgen receptor; experiment: Androgen receptor blocking in breast capsule (hard band) tissue; assay type: binding; design: from tissue; host or cells: breast capsule (hard fibrous band) tissue; concentration or dose not given beside the values
# Description: In addition to interabdominal adhesions following surgery, the other most common post-surgical fibrous complication is that of a hard fibrous band developing around breast implants following breast augmentation surgery. It has been postulated that these bands may be caused by keloid formation under the skin. Such tissues were studied to evaluate the effect of the anti-androgens of this invention on other keloid tissue.
# [5] = molecular target: T4, progesterone receptor (keloid cytosol) (Homo sapiens, UniProt P06401); experiment: Keloid cytosol steroid binding assay, progesterone
# T4 construct: [3H]promegestone (R5020) tracer
# estrogen receptor [6] = experiment: Estrogen receptor inhibition in skin/tissue fibroblast lines; assay type: cell-based, human; details: DHT:compound 1:1,000; for interference with / inhibition of estrogen receptors: more than 400 experiments
# Experimental: Explants of both normal and keloid skin and tissue fibroblast lines were established.
# Hormonal receptor analyses on these tissues were performed by the method of Griffith et al., Journal of Clinical Investigation, Vol. 57, page 1340 (1978).
# human fibroblast cells [7] = experiment: Elastin production by fibroblast cells; assay type: cell-based; details: for formation of elastin: Example 45; for increase in elastin production over control cells: treated vs control (non-treated) fibroblast cells
# Description: as §1, §2
# progesterone receptor [8] = experiment: Progesterone receptor inhibition, Pseudomonas testosteroni; assay type: binding
# progesterone receptor [9] = experiment: Progesterone receptor inhibition, Trichophyton; assay type: binding
# estrogen receptor [10] = experiment: Estrogen receptor inhibition, Trichophyton; assay type: binding
# [11] = ratio of compound to androgen 10:1
# [12] = ratio of compound to androgen 100:1
# [13] = ratio of compound to androgen 1000:1
# [14] = ratio of compound to androgen 10000:1
# T4 sequence (P06401 whole entry): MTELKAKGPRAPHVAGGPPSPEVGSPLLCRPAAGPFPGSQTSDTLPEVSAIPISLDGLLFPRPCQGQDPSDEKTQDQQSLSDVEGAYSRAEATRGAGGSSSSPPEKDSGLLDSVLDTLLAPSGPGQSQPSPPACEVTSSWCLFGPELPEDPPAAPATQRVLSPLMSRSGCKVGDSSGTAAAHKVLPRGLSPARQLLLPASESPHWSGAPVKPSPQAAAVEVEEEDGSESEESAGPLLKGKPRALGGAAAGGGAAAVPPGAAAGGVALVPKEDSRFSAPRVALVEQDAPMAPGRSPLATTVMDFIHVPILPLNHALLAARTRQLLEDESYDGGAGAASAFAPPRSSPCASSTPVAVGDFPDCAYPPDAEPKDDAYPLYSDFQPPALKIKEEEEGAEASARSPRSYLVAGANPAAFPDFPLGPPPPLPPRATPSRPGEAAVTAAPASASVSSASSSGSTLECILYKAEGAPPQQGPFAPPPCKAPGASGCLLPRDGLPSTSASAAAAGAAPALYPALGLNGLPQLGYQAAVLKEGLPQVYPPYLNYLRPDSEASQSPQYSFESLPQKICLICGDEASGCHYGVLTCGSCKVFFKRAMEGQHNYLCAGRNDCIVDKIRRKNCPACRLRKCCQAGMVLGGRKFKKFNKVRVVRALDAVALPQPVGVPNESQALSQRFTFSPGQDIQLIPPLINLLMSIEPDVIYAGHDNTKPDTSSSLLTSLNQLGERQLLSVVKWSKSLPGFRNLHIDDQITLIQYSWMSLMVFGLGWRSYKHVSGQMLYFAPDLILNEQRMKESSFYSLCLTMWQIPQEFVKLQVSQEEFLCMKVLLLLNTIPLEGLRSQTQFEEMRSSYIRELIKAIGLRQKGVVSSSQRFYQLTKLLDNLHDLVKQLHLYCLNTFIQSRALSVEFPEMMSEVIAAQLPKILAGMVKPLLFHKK
smiles,measurement,setting,value
"CCC(CCCCC1CCC2CC(=O)CC12)OC (stereo not drawn) [Compound V, 2-(5-Methoxyhept-1-yl)bicyclo[3.3.0]octan-7-one]",inhibition of the androgen receptor site,androgen receptor [1],inhibited the androgen receptor site
same,Femtamoles of Testosterone Bound/mg Protein,androgen receptor [1],1.9 Femtamoles/mg Protein
same,% of Androgen Receptor Inhibition,androgen receptor [1],47.0%
same,inhibitory effects on species of Fusarium,Fusarium,valuable inhibitory effects
same,anti-androgenic action,androgen receptor sites,anti-androgenic compound operating in the same manner
same,% of Androgen Receptor Inhibition,androgen receptor [2]; [11],43.6%
same,% of Androgen Receptor Inhibition,androgen receptor [2]; [12],51.3%
same,Femtamoles of DHT Bound/mg Protein,androgen receptor [2]; [11],44 Femtamoles/mg Protein
same,Femtamoles of DHT Bound/mg Protein,androgen receptor [2]; [12],38 Femtamoles/mg Protein
same,% Inhibition of 3H Androgen Binding to Skin,androgen receptor site; [11],32%
same,% Inhibition of 3H Androgen Binding to Skin,androgen receptor site; [12],55%
same,% Inhibition of 3H Androgen Binding to Skin,androgen receptor site; [13],80%
same,% Inhibition of 3H Androgen Binding to Skin,androgen receptor site; [14],86%
same,collagen production/formation,human fibroblast cells [3],decrease in collagen production; also recorded: decreased
same,Mean % Androgen Inhibition,androgen receptor [4]; breast capsule group 1,17%
same,Mean % Androgen Inhibition,androgen receptor [4]; breast capsule group 2,49%
same,Mean % Androgen Inhibition,androgen receptor [4]; breast capsule group 3,70%
same,Mean % Androgen Inhibition,androgen receptor [4]; breast capsule group 4,74%
same,effect on binding of progesterone,[5],no effect
same,interference with / inhibition of estrogen receptors,estrogen receptor [6],without significant interference
same,interference with / inhibition of estrogen receptors,estrogen receptor [6]; listed as 2-(5-methoxyhept-1-yl)bicyclo[3.3.0]octan-7-one,None of the tests showed any measurable estrogen receptor inhibition; also recorded: without significant interference
same,% Estrogen Receptor Inhibition,estrogen receptor [6]; forearm,0%
same,% Estrogen Receptor Inhibition,estrogen receptor [6]; keloid,0%
same,% Estrogen Receptor Inhibition,"estrogen receptor [6]; keloid, listed as 2-(5-methoxyhept-1-yl)bicyclo[3.3.0]octan-7-one",no measurable
same,% Estrogen Receptor Inhibition,estrogen receptor [6]; scalp,0%
same,formation of elastin,human fibroblast cells [7],massive observable increase in the formation of elastin
same,increase in elastin production over control cells,human fibroblast cells [7],~30%
CCC(O)CCCCC1CCC2CC(=O)CC12 (stereo not drawn) [Compound IV],% Progesterone Receptor Inhibition,progesterone receptor [8]; strain 1,0%
same,% Progesterone Receptor Inhibition,progesterone receptor [8]; strain 2,0%
same,% Progesterone Receptor Inhibition,progesterone receptor [8]; strain 3,0%
same,% Progesterone Receptor Inhibition,progesterone receptor [8]; strain 4,0%
same,inhibition of the androgen receptor site,androgen receptor [1],inhibited the androgen receptor site
same,Femtamoles of Testosterone Bound/mg Protein,androgen receptor [1],2.0 Femtamoles/mg Protein
same,% of Androgen Receptor Inhibition,androgen receptor [1],43.7%
same,inhibitory effects on species of Fusarium,Fusarium,valuable inhibitory effects
same,colony counts,Fusarium; Fusarium,markedly decreased
same,growth rate,Fusarium; Fusarium,markedly decreased
same,production of zearalanol,Fusarium; Fusarium,markedly decreased
same,production of zearalenone,Fusarium; Fusarium,markedly decreased
same,anti-androgenic action,androgen receptor sites,anti-androgenic compound operating in the same manner
same,% of Androgen Receptor Inhibition,androgen receptor [2]; [11],25.6%
same,% of Androgen Receptor Inhibition,androgen receptor [2]; [12],41.0%
same,Femtamoles of DHT Bound/mg Protein,androgen receptor [2]; [11],58 Femtamoles/mg Protein
same,Femtamoles of DHT Bound/mg Protein,androgen receptor [2]; [12],46 Femtamoles/mg Protein
same,% Inhibition of 3H Androgen Binding to Skin,androgen receptor site; [11],25%
same,% Inhibition of 3H Androgen Binding to Skin,androgen receptor site; [12],51%
same,% Inhibition of 3H Androgen Binding to Skin,androgen receptor site; [13],75%
same,% Inhibition of 3H Androgen Binding to Skin,androgen receptor site; [14],83%
same,collagen production/formation,human fibroblast cells [3],decreased
same,collagen production/formation,human fibroblast cells [3]; listed as compound IV,decrease in collagen production
same,% Progesterone Receptor Inhibition,progesterone receptor [9],7%
same,% Estrogen Receptor Inhibition,estrogen receptor [10],0%
same,formation of elastin,human fibroblast cells [7],massive observable increase in the formation of elastin
same,increase in elastin production over control cells,human fibroblast cells [7],~30%

# Reference: US4689345A, “Oxygenated alkyl substituted bicyclo alkanes” (CBD Corporation, priority 1986, dated 1987)
